B1: IL-1β: recombinant murine interleukin-1 beta (protein, UniProt P10749 118-269, looked up)
Interleukin-1 beta: VPIRQLHYRLRDEQQKSLVLSDPYELKALHLNGQNINQQVIFSMSFVQGEPSNDKIPVALGLKGKNLYLSCVMKDGTPTLQLESVDPKQYPKKKMEKRFVFNKIEVKSKVEFESAEFPNWYISTSQAEHKPVFLGNNSGQDIIDFTMESVSS
B2: IL-1α: recombinant murine interleukin-1 alpha (protein, UniProt P01582 115-270, looked up)
Interleukin-1 alpha: SAPYTYQSDLRYKLMKLVRQKFVMNDSLNQTIYQDVDKHYLSTTWLNDLQQEVKFDMYAYSSGGDDSKYPVTLKISDSQLFVSAQGEDQPVLLKELPETPKLITGSETDLIFFWKSINSKNYFTSAAYPELFIATKEQSRVHLARGLPSMTDFQIS

Assays:
bEnd.3 cells = test: Detection of PS on cultured endothelial cells by 125I-labeled annexin V; type: cell-based, mouse; conditions: for 125I-Annexin V (% of Max binding), bEnd.3 cells: 24 h, concentration as listed per treatment
Method: (§1) All reagents were diluted in medium containing 10% serum and incubated with the cells at 37° C. for 24 h.
(§2) To study the effect of hypoxia, cells were seeded on 24 well plates and were incubated in a humidified normoxic atmosphere (21% O2. 5% CO2) for 48 h before being transferred to a humidified hypoxic atmosphere (1% O2, 5% CO2, 94% N2) in a sealed chamber (Billups Rothenberg Inc., Del Mar, Calif.). Cells were incubated in a hypoxic chamber for 24 h at 37° C. and were then returned to a normoxic environment for 4 h at 37° C. The cells were compared to a parallel culture from an identical passage, seeded on the same day and maintained entirely under normoxic conditions. In some studies, IL-1α (10 ng/ml) and TNFα (20 ng/ml) were added to the medium before transfer to the hypoxic chamber.
(§3) After treatment with the reagents described above, treated and control cells were incubated with 7.1 pmoles of ^125I-labeled annexin V (200 μl/well) in the binding buffer. After 2 h incubation at room temperature, cells were washed extensively and dissolved in 0.5 M of NaOH. The entire volume of 0.5 ml was transferred to plastic tubes and counted in a gamma counter. Non-specific binding was determined in the presence of 5 mM EDTA and was subtracted from experimental values. The results were expressed as net pmoles of cell-bound annexin V, normalized per 1×10^6 cells.
(§4) Maximal binding of annexin V was determined on cells simultaneously treated with actinomycin D and TNFα (50 ng/ml of each component). As has been previously reported, these agents cause apoptosis and PS exposure in 90-100% of endothelial cells (Lucas et al., 1998). Basal binding of ^125I-annexin V to untreated cells was determined in the presence of medium with 10% serum. The amount of ^125I-annexin V that bound to the untreated cultures was subtracted from that in the treated cultures. Exposure of PS was calculated according to the following formula: cell-bound annexin V (pmoles) under experimental conditions divided by maximal annexin V binding (pmoles), multiplied by 100. Each study was performed in duplicate and was performed at least three times. Mean values were calculated. The SE of the mean values from three separate experiments was less than 5%.

ABAE cells = test: as above; type: cell-based, bovine; conditions: for 125I-Annexin V (% of Max binding), ABAE cells: 24 h, concentration as listed per treatment; for anionic phospholipid-exposure (% of the maximum): ABAE cells, hypoxia/reoxygenation in the presence of sub-toxic cytokine
Method: as §1, §2, §3, §4

bEnd.3 endothelial cells = test: Induction of PS by H2O2: anti-PS IgM staining and Trypan Blue exclusion
[1] = patients having progressive disease before treatment; cited from earlier work
[2] = system: human umbilical vein endothelial cells (HUVEC); test: PS exposure on endothelial cells by FACS (3G4 binding), HUVEC; type: cell-based; conditions: 10 nM docetaxel, 24 hrs, compared to untreated cells
Method: (§5) The induction of PS exposure on endothelial cells by subclinical concentrations of docetaxel was examined in vitro by FACS analysis. Human umbilical vein endothelial cells (HUVEC) and human microvessel endothelial cells (HMVEC) were treated with 10 nM of docetaxel for 24 hrs and examined by FACS. […] Docetaxel incubations for 48 and 72 hrs were also conducted.

[3] = breast cancer patients; cited from earlier work
tumor cell lines = test: Induction of PS exposure on tumor cell lines by docetaxel (FACS); type: cell-based; conditions: 10 nM, 24 hrs
Method: FIG. 25A, FIG. 25B and FIG. 25C. Induction of PS exposure on tumor cell lines by docetaxel. Mouse lewis lung carcinoma 3LL, mouse colon carcinoma Colo26 and human breast cancer MDA-MB-435 cells were treated with 10 nM of docetaxel for 24 hrs. […] The cells were then washed twice, FITC labeled goat anti-mouse IgG was added and the cells incubated for a further 30 mins. on ice. The cells were then washed and analyzed by FACS using a FACSCalibur cytometer (Becton-Dickinson, San Jose, Calif.) with CellQuest acquisition software.
FIG. 26. Induction of PS exposure on human breast cancer MDA-MB-231 cells by docetaxel. Human breast cancer MDA-MB-231 cells were treated with 10 nM of docetaxel for 24 hrs. […] The cells were then washed twice, FITC labeled anti-IgG was added and the cells analyzed by FACS, as above. There is a significant increase in ch3G4 binding as compared to control, human IgG.
(§6) The in vitro induction of PS exposure by subclinical concentrations of docetaxel was also examined by FACS analysis using a panel of tumor cell lines. Mouse lewis lung carcinoma 3 LL, mouse colon carcinoma Colo26 and human breast cancer MDA-MB-435 cells were treated with 10 nM of docetaxel for 24 hrs and examined by FACS. […] Docetaxel incubations for 48 and 72 hrs were also conducted.

HUVEC and HMVEC = test: Induction of PS exposure on endothelial cells by docetaxel (FACS, 3G4 binding); type: cell-based, human; conditions: 10 nM, 24 hrs
Method: FIG. 24A and FIG. 24B. Induction of PS exposure on endothelial cells by docetaxel. Human umbilical vein endothelial cells (HUVEC) and human microvessel endothelial cells (HMVEC) were treated with 10 nM of docetaxel for 24 hrs. […] The cells were then washed twice, FITC labeled goat anti-mouse IgG was added and the cells incubated for a further 30 mins. on ice. The cells were then washed and analyzed by FACS using a FACSCalibur cytometer (Becton-Dickinson, San Jose, Calif.) with CellQuest acquisition software.
as §5

[4] = system: human microvessel endothelial cells (HMVEC); test: PS exposure on endothelial cells by FACS (3G4 binding), HMVEC; type: cell-based; conditions: 10 nM docetaxel, 24 hrs, compared to untreated cells
Method: as §5

[5] = system: Mouse lewis lung carcinoma 3 LL; test: PS exposure on tumor cells by FACS (3G4 binding), 3LL; type: cell-based; conditions: 3 LL cells, 10 nM docetaxel, 24 hrs, compared with untreated cells
Method: as §6

[6] = system: mouse firbrosarcoma Meth A; test: PS exposure on tumor cells by FACS (3G4 binding), Meth A; type: cell-based; conditions: docetaxel, compared with untreated cells
[7] = system: human breast cancer MDA-MB-435 cells; test: PS exposure on tumor cells by FACS (3G4 binding), MDA-MB-435; type: cell-based; conditions: 10 nM docetaxel, 24 hrs, compared with untreated cells
Method: as §6

[8] = system: mouse colon carcinoma Colo26; test: PS exposure on tumor cells by FACS (3G4 binding), Colo26; type: cell-based; conditions: 10 nM docetaxel, 24 hrs, compared with untreated cells
Method: as §6

Mouse melanoma B16 = test: PS exposure on tumor cells by FACS (3G4 binding), B16; type: cell-based; conditions: docetaxel, compared with untreated cells

Row | Molecule | 125I-Annexin V (% of Max binding), bEnd.3 cells (bEnd.3 cells) | 125I-Annexin V (% of Max binding), ABAE cells (ABAE cells) | other results
1 | Scatter factor: recombinant hepatocyte growth factor (HGF or scatter factor) | 0% | 0% | 
2 | Hypoxia + IL-1α: IL-1α (10 ng/ml) under hypoxia/reoxygenation | 31.0% | 26.0% | 
3 | OO [Hydrogen peroxide, hydrogen peroxide] | 98.4% | 95.5% | cells with PS detected at the cell surface (bEnd.3 endothelial cells; concentrations as low as 20 μM): about 50%; cell viability (bEnd.3 endothelial cells; high concentrations, 1 hour): 50-60%; cells with PS translocation (bEnd.3 endothelial cells; high concentrations, 1 hour): ~90%; cell viability (bEnd.3 endothelial cells; low levels of H2O2, identical to untreated cells): 95%; cells with translocation of anionic phospholipids to the external surface (125I-labeled annexin V) (bEnd.3 cells; 200 μM for 2 h): 70-90%; externalization of PS by 125I-annexin V binding (ABAE cells; 100 to 200 μM, both cell types): 95%; cells that bound biotinylated annexin V (immunohistochemically) (ABAE cells; ABAE and bEnd.3 cells, 100 to 200 μM): More than 70%
4 | FGF-2: human fibroblast growth factor-2 | 0% | 0% | 
5 | VEGF | 0% | 0% | 
6 | Interferon | 2.8% | 8.6% | 
7 | IL-10: interleukin-10 | 0% | 0% | 
8 | Thrombin | 17.4% | 8.8% | 
9 | IL-6: interleukin-6 | 0% | 0% | 
10 | TGF β1: growth factor | 0% | 0% | 
11 | NC(=O)c1nnn(Cc2cc(Cl)c(C(=O)c3ccc(Cl)cc3)c(Cl)c2)c1N [CAI, carboxyamidotriazole] |  |  | cancer patients with disease stabilization [1]: 49%
12 | TNFα | 13.7% | 7.4% | anionic phospholipid-exposure (% of the maximum) (ABAE cells): 33%
13 | CC(=O)O[C@@]12CO[C@@H]1C[C@H](O)[C@@]1(C)C(=O)[C@H](O)C3=C(C)[C@@H](OC(=O)[C@H](O)[C@@H](NC(=O)OC(C)(C)C)c4ccccc4)C[C@@](O)([C@@H](OC(=O)c4ccccc4)[C@H]21)C3(C)C [docetaxel] |  |  | 3G4 binding by FACS (PS exposure) [2]: significant increase in 3G4 binding; serum cytokine levels and NK/LAK cell activity [3]: increase in serum IFN-γ, IL-2, IL-6 and GM-CSF cytokine levels and enhancement of NK and LAK cell activity; 3G4 binding vs. untreated cells (tumor cell lines; 3LL, Colo26, MDA-MB-435 cells): significant increase in 3G4 binding; antibody (ch3G4) binding to treated cells (tumor cell lines; MDA-MB-231, vs. human IgG): significant increase in antibody binding; 3G4 binding vs. untreated cells (HUVEC and HMVEC; HMVEC): significant increase in 3G4 binding; 3G4 binding vs. untreated cells (HUVEC and HMVEC; HUVEC): significant increase in 3G4 binding; 3G4 binding by FACS (PS exposure) [4]: significant increase in 3G4 binding; 3G4 binding by FACS (PS exposure) [5]: significant increase in 3G4 binding; 3G4 binding by FACS (PS exposure) [6]: significant increase in 3G4 binding; 3G4 binding by FACS (PS exposure) [7]: significant increase in 3G4 binding; 3G4 binding by FACS (PS exposure) [8]: significant increase in 3G4 binding; 3G4 binding by FACS (PS exposure) (Mouse melanoma B16): significant increase in 3G4 binding
14 | IL-8: interleukin-8 | 0% | 0% | 
15 | B1 | 5.5% | 5.8% | 
16 | B2 | 7.5% | 6.4% | anionic phospholipid-exposure (% of the maximum) (ABAE cells): 26%
